In patent publication US12630523B2, “Isoquinoline derivatives for use as antiviral and antitumour agents” (priority 2021, dated 2026):
Several values for one entry are separate records, joined by “and”; a condition that tells them apart may be missing. Equal entries are not always repeated. Where two headings read alike, the source gives them in different places.

Assays:
CaSki cells = assay: Cell cycle analysis using Propidium-Iodide staining (flow cytometry); type: cell-based, human; conditions: 48 hour incubation; for A*/5 μM (apoptosis as measured from total SUB G1 content) / A*/10 μM (apoptosis as measured from total SUB G1 content): no treatment 15.0; for G2/5 μM / G1/5 μM / G2/10 μM / G1/10 μM: cell cycle distribution; for G2/5 μM / G2/10 μM: no treatment 15.6; for G1/5 μM / G1/10 μM: no treatment 53.3
Protocol: Propidium-Iodide (PI) DNA staining is performed to facilitate cell cycle analysis. For PI-DNA staining, fixed cells and eventually antibody-stained cells are resuspended in 450 μl of PBS (per 10^6 cells) and incubated with 100 μg/ml RNase (stock 1 mg/ml, in PBS) for 10 minutes at 37° C. Cells are then incubated with 5 μg/106 cells of PI (stock 1 mg/ml in PBS) for 10 minutes at room temperature. Samples are stored at 4° C. until CF analysis.
CaSki cells were incubated with various compounds and cell cycle distribution of the cells was assessed using Propidium-Iodide staining.
In order to analyze the cytostatic versus the cytotoxic effect of OC compounds, cell cycle profiles were analyzed in vitro after 48 hour incubations using Flow Cytometry as a read out. For this a cell cycle analysis from selected OC E7 degrader compounds was conducted in CaSki cells. Using 6 well plates, 1.5×10^5 cells were seeded for each well and grown over night at 37° C. 5% CO2. For analysis of the cell cycle behavior, cells were analyzed in the presence of propidium Iodide (PI^−) by flow cytometry (FC). Briefly, cells were detached by trypsin digestion, all supernatants were included in the analysis, and fixed with 70% ice cold ethanol and stored at 4° C. until FC analysis using PI^− staining (1 mg/ml). At least 7000 events were acquired for each sample.

[1] = system: CaSki (ATCC CRM-CRL-1550); assay: Monolayer assay using Sulphorhodamine B (SRB) staining, CaSki; type: cell-based; conditions: Homo sapiens, Ca-Ski
Procedure, shortened: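 After 24 h recovery, 10.000–30.000 cells/well treated 72 h with compound at 9 concentrations. Cells TCA-fixed (10% final) 1 h at 4 °C, SRB-stained, optical density read at 540 nm; EC50 for growth inhibition from non-linear regression of log concentration versus % T/C.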

[2] = system: SARS-CoV-2 isolate BetaCov/Belgium/GHB-03021/2020; assay: microbe, parasite or virus in culture; type: cell-based; conditions: for inhibition at 1.25 µM: Severe acute respiratory syndrome coronavirus 2, 1.25 μM (non-toxic compound concentration), n4; for SARS-CoV-2 antiviral activity, mono treatment or combination (FIG. 10): Vero E6 cells, VSP035 10-0.625 μM
[3] = system: cell signaling molecules (4E-BP1, p70 S6 kinase, Akt, PTPN14, p53, PD-L1); assay: Western blot of cell signaling molecules in CaSki cells

For `CN1CCC(CN2C(=O)c3ccccc3[C@@H](C(=O)Nc3cccc(N4CCN(C)CC4)c3)[C@@H]2c2ccc(C(F)(F)F)cc2)CC1` (racemic) [OC974, (3R,4R)- and (3S,4S)-N-[3-(4-methylpiperazin-1-yl)phenyl]-2-[(1-methylpiperidin-4-yl)methyl]-1-oxo-3-[4-(trifluoromethyl)phenyl]-3,4-dihydroisoquinoline-4-carboxamide], the “A*/5 μM (apoptosis as measured from total SUB G1 content)” value (CaSki cells) was 19.5%, the “A*/10 μM (apoptosis as measured from total SUB G1 content)” value (CaSki cells) was 82.9% and 81.8% and the “G2/5 μM” value (CaSki cells) was 9.9%. For the same molecule, the “G1/5 μM” value (CaSki cells) was 49.6%, the “G2/10 μM” value (CaSki cells) was 0.8% and the “G1/10 μM” value (CaSki cells) was 8.7%. For the same molecule, the EC50 ([1]; read-out: EC50 mean [nM]) was 1550 nM and the inhibition at 1.25 µM [2] was 54.3%.
With `Cc1ccc(CN2C(=O)c3ccccc3[C@H](C(=O)Nc3cccc(N4CCN(C)CC4)c3)[C@@H]2c2ccc(C(F)(F)F)cc2)cc1` [OC246, N-[3-(4-methylpiperazin-1-yl)phenyl]-2-[(4-methylphenyl)methyl]-1-oxo-3-[4-(trifluoromethyl)phenyl]-1,2,3,4-tetrahydroisoquinoline-4-carboxamide] the “A*/5 μM (apoptosis as measured from total SUB G1 content)” value (CaSki cells) was 19.6%, the “A*/10 μM (apoptosis as measured from total SUB G1 content)” value (CaSki cells) was 89.4% and the “G2/5 μM” value (CaSki cells) was 15.7%. The “G1/5 μM” value (CaSki cells) was 48.0%, the “G2/10 μM” value (CaSki cells) was 0.2% and the “G1/10 μM” value (CaSki cells) was 1.5%. For the same molecule, the EC50 ([1]; 72 h) was 2890 nM, the EC50 ([1]; read-out: EC50 mean [nM]) was 3050 nM and the “signaling of phosphor-Akt S473” value ([3]; 10 μM, 4 hours, CaSki and U2OS cells) was “does not inhibit”. For the same molecule, the inhibition at 1.25 µM [2] was 45.7%.
For `CN1CCC(CN2C(=O)c3ccccc3[C@H](C(=O)Nc3cccc(N4CCN(C)CC4)c3)[C@H]2c2ccc(C(F)(F)F)cc2)CC1` [VSP035, (3S,4S)-N-[3-(4-methylpiperazin-1-yl)phenyl]-2-[(1-methylpiperidin-4-yl)methyl]-1-oxo-3-[4-(trifluoromethyl)phenyl]-1,2,3,4-tetrahydroisoquinoline-4-carboxamide], the EC50 ([1]; read-out: EC50 mean [nM]) was 3750 nM, the PDL-1 regulation ([3]; CaSki, 4 and 8 hours, dose dependent) was “valid pdl-1 destabilizer” and the “p(S473)Akt, Sting and Irf-3 levels” value ([3]; CaSki, 10 μm VSP035 time course) was “do not appear to be influenced”. For the same molecule, the “Ptpn14 and p53 levels” value ([3]; CaSki, 10 μm, 24 h time point) was “increase in Ptpn14 and p53”, the “Phosphorylation of 4E-BP1 on Ser65 and the p70S6 kinase on Thr389” value ([3]; CaSki, 6 h, order 10 μM VSP035, Torin 1, Torin 2, rapamycin, 5 μM VSP035, CGP 57380) was “inhibited or strongly reduced” and the 4E-BP1 phosphorylation state ([3]; CaSki, 6 h treatment) was “dose dependent hypophosphorylation of 4E-BP1”. The inhibition at 1.25 µM [2] was 72.4%, the “SARS-CoV-2 antiviral activity, mono treatment or combination (FIG. 10)” value [2] was “moderate” and the “SARS-CoV-2 antiviral activity, mono treatment or combination (FIG. 10)” value ([2]; listed as VS035) was “Robust antiviral activities”.
